The test system of data set [1] is V79 (Chinese Hamster Lung Fibroblasts) cells. Briefly: In vitro cytotoxicity assay (light EC50, Alamar blue). Type of data set: cell-based. Here is the method: The in vitro biological evaluation of photosensitizers for their ability to photosensitize cells was performed using standard procedures. Using 5% FBS/DMEM phenol-free media, wells (180 μl/well) were plated with 5×10^4 V79 (Chinese Hamster Lung Fibroblasts) cells/ml into two 96 well plates. Plate 1 was light-treated and plate 2 served as a control. The plates were Incubated at 37° C., 5% CO2 for 3-5 hours. Standard solutions of the photosensitizers were dissolved in pre-filtered Dimethyl Sulfoxide (DMSO). Drug was diluted in 5% FBS DMEM phenol free medium. Final drug concentrations for light and dark experiments were 0.01, 0.1, 1.0, 3.0 and 5.0 μM. Twenty microliters of each concentration were added to six replicate wells to the light and dark plate. The plates were wrapped in aluminum foil to avoid photoactivation and mixed in a gyratory shaker for approximately 2 minutes. Both plates were incubated for 24 hours at 37° C., 5% CO2. After a 24 hour incubation, drug-containing media was aspirated from the plates. Each well was rinsed with 180 μl Hepes buffer salt solution (HBSS) then aspirated to remove the HBSS. 180 μl of fresh media were added (5% FBS/DMEM phenol-free) to each well. […] Plate 2 was not light treated. Immediately after light treatment, 20 μl Alamar blue was added to each well in plate 1. Alamar blue was added to plate 2 immediately after fresh media was added. The plates were mixed on a gyratory shaker for 5 min.
Both plates were incubated under dark conditions for 24 hours at 37° C., 5% CO2. After 24 hour incubation, the plates were read on a plate reader spectrophotometer (Spectra Max 250) at wavelengths 570 and 600 nm. and the percentage of cell survival recorded.
On the technique in general: Resazurin is reduced to fluorescent resorufin, in cell work by metabolically active cells.

Data set [2] deals with normal uninjured rat carotid arteries (medial and adventitial cell populations). Briefly: In vivo rat carotid artery acellularity after PDT. Set-up: species or system Sprague Dawley rats. As to conditions: for Max % rat Artery Accelularity: Table 3, 50 J/cm^2, 3 days post treatment; for efficacy of free base porphyrins in the arterial rat model: at the time point, drug and light dose parameters used. On the procedure: The acute effects of metallated photosensitizers, in response to light activation, to cause depletion of cell populations in the medial and adventitial layers of vessels was measured in normal uninjured rat carotid arteries. […] Shortly before the light treatment, the rats were anaesthetized with 3.5% isoflurane (Abbott Laboratories, IL, USA) and the femoral region of the right leg was shaved and cleaned. […] A direct arteriotomy was performed and a light balloon catheter ([…] Medical Technologies, Inc) was introduced into the vessel and advanced retrogradely into a non-manipulated region of the left common carotid artery via the abdominal aorta. […] After light treatment and removal of the catheter, the right femoral artery was tied off and the skin wound was closed. Rats were sacrificed three days post treatment as this corresponds to the known peak time that vascular cells, e.g., VSMC and myofibroblasts, proliferate and migrate in response to an injury. The area spanning both left and right carotid arteries and surrounding tissue was harvested, fixed, embedded in paraffin and sectioned. The tissues were stained with Hematoxylin and Eosin (Fisher Scientific, PA) and examined by light microscopy to histologically assess the cell population density in the medial and adventitial layers of the PDT-treated vessel wall. […] Metallo azaporphyrins with Ga, Zn, Al, Sn were excited at 575 nm, while Pt azaporphyrins were excited at 532 nm.

Data set [3] has as its system normal skin of CD Hairless male rats. It counts as in vivo, rat. The conditions noted are these: rat, in vivo. The text has this:
We tested metallo- and metal-free tetrapyrroles systemically (see following section) for normal skin response in relation to the pharmacodynamic distribution of the photosensitizers in CD hairless rats. The skin of CD hairless rats are poorly developed, often referred to as hyperkeratotic, with various sized cystic hair follicles containing concentric lamellar accumulations of keratinaceous material, which are often associated with enlarged sebaceous glands. It quickly became apparent that gallium tetrapyrroles induced a marked clearing of the hyperkeratotic lesions in the treatment areas on the hairless rats. In fact, this clearing could be induced without necrosis of the skin. No other metallotetrapyrrole type produced such effects. This observation led us to assess the metallotetrapyrrolic compounds for skin restructuring effects both topically and systemically and for their ability to reduce hair growth in the following animal models.
Photosensitizer normal skin response as well as skin healing response, was evaluated using CD Hairless male rats. Photosensitizers were administered in an liposomal egg yolk phospholipid formulation at 1, 1.5 and 2 μmol/kg body weight formulation per dose group as a single bolus intravenous injection given through a marginal tail vein using a 27 gauge needle and a 1 cc tuberculin syringe. Normal skin responses were evaluated by irradiating several spots on the skin of the rat with a 532 nm laser (150 mW/cm^2, 150J, 1 cm diameter) at 1, 6, 24, 48, and 96 hrs post injection. Normal skin responses were evaluated and documented. The time at which the last spot is observed at the concentration injected is reported in the far right hand column in Tables 3, 4, 5 and 6. Skin samples were taken for histological evaluation at days 1, 10, 20 and 22 post light treatment. Rats were housed under normal lighting and all study procedures involving the test article were conducted under light filtered through blue and green Roscolox light filters to prevent photoactivation or degradation of the drug.

Where [4] appears, read: Table 3 porphyrins, 24 h drug incubation, 532 nm, 1.25 J/cm^2, read-out: In Vitro EC50 Light.
The mark [5] stands for this setting: light EC50, metallodiazaporphyrins, read-out: In Vitro EC(50).
[6] abbreviates: Table 4 azaporphyrins, 575 nm (Pt azaporphyrins 532 nm), 1.25 J/cm^2, read-out: In Vitro EC(50).

Where two headings read alike, the source gives them in different places.

For `CCOC(=O)CCCCC1=C(C)c2cc3[nH]c(cc4nc(cc5[nH]c(cc1n2)c(CCCCC(=O)OCC)c5C)C(C)=C4CC)c(C)c3CC.[Pt]` [Example 53, Platinum 8,13-diethyl-3,7,12,17-tetramethylporphyrin-2,18-di(pentanoic acid ethyl ester)], in data set [1] (setting [4]), the EC50 is 100 nM. Moreover, the “Max % rat Artery Accelularity” value in data set [2] (drug dose 1 μMol) is given as 20%.
The like results for `CCC1=C(C)C2=[N+]3C1=Cc1c(C)c(CC)c4[n]1[Al-2]31([Cl])[n]3c(c(C)c(CCCO)c3=CC3=[N+]1C(=C4)C(C)=C3CCCO)=C2` [Example 73, Aluminum Chloride 8,13-diethyl-3,7,12,17-tetramethylporphyrin-2,18-di(3′-hydroxypropyl)] were, in that order, 3600 nM and 0%.
In the case of `CCC1=C(C)c2cc3[n-]c(cc4nc(cc5[n-]c(cc1n2)c(C)c5CC)C(C)=C4CCCN(CC)CC)c(CCCN(CC)CC)c3C.[Zn+2]` [Example 79, Zinc 8,13-diethyl-3,7,12,17 tetramethylporphyrin-2,18-di((N,N-diethyl)-3-aminopropyl)], in data set [3], the “Normal skin Response (1 μmol) in hrs” value is on record as “None”.
Consider `CCC1=C(CC)C2=[N+]3C1=Nc1c(CC)c(CC)c4[n]1[Pt-2]31[n]3c(c(C)c(CCC(=O)[O-])c3=CC3=[N+]1C(=C4)C(C)=C3CCC(=O)[O-])=C2.[K+].[K+]` (stereo not drawn) [Example 86, Platinum 7,8,12,13-tetraethyl-12,17-dimethyl-10-azaporphyrin-2,18-di(propionic acid Potassium Salt)], for which the “Normal skin Response (1 μmol)” value in data set [3] was 96 h.
Regarding `CCC1=C(C)c2cc3[n-]c(cc4nc(cc5[n-]c(cc1n2)c(C)c5CC)C(C)=C4CCC(=O)[O-])c(CCC(=O)[O-])c3C.[In+3].[Na+].[Na+].[OH-]` [Example 110, Indium Hydroxy Mesoporphyrin Disodium Salt], the EC50 in data set [1] (setting [4]) was found to be 1000 nM. Besides, the “Max % rat Artery Accelularity” value in data set [2] (drug dose 1 μMol) worked out at 0%.
Turning to `CCC1=C(C)C2=Cc3c(CC)c(C)c4[n]3[Pt][n]3c(c(C)c(CCC(=O)[O-])c3=CC3=NC(=C4)C(C)=C3CCC(=O)[O-])=CC1=N2.[Na+].[Na+]` [Example 111, Platinum Mesoporphyrin Disodium Salt], in data set [1] (setting [4]), the EC50 is 700 nM. Further, in data set [2] (drug dose 1 μMol), the “Max % rat Artery Accelularity” value is given as 0%.
`C=CC1=C(C)c2cc3[n-]c(cc4nc(cc5[n-]c(cc1n2)c(C)c5CCC(=O)[O-])C(CCC(=O)[O-])=C4C)c(C)c3C=C.[In+3].[Na+].[Na+].[OH-]` [Example 112, Indium Hydroxy Protoporphyrin Disodium Salt]: the EC50 in data set [1] (setting [4]) came out at 1500 nM. In data set [2] (drug dose 1 μMol), the “Max % rat Artery Accelularity” value was found to be 0%.
Take `CC1=C(CCC(=O)[O-])c2cc3[n-]c(cc4nc(cc5[n-]c(cc1n2)c(CCC(=O)[O-])c5C)C(C)=C4CCC(=O)[O-])c(CCC(=O)[O-])c3C.[In+3].[Na+].[Na+].[Na+].[Na+].[OH-]` [Example 113, Indium Hydroxy Coproporphyrin III Tetra Sodium Salt]: the EC50 in data set [1] (setting [4]) amounted to 3600 nM. In addition, the “Max % rat Artery Accelularity” value in data set [2] (drug dose 1 μMol) is 0%.
For `CCC1=C(CC)C2=[N+]3C1=Nc1c(CC)c(CC)c4[n]1[Ga-2]31([Cl])[n]3c(c(CC)c(CC)c3=C2c2ccc(OC)cc2)=NC2=[N+]1C(=C4c1ccc(OC)cc1)C(CC)=C2CC` [M=Ga, R1=Et, R2=Et, R3=p-(C6H4)OCH3], the EC50 in data set [1] (setting [5]) was found to be 600 nM.
The same measure, in the same setting: as for `CCC1=C(CC)C2=[N+]3C1=Nc1c(CC)c(CC)c4[n]1[Pt-2]31[n]3c(c(CC)c(CC)c3=C2c2ccc(OC)cc2)=NC2=[N+]1C(=C4c1ccc(OC)cc1)C(CC)=C2CC` (stereo not drawn) [M=Pt, R1=Et, R2=Et, R3=p-(C6H4)OCH3], the figure is 300 nM.
On to `CCC1=C(C)c2cc3[nH]c(cc4nc(cc5[nH]c(cc1n2)c(C)c5CCC(=O)OC)C(CCC(=O)OC)=C4C)c(C)c3CC` [mesoporphyrin dimethyl ester, reference compound], for which the “efficacy of free base porphyrins in the arterial rat model” value in data set [2] is “poor efficacy”.
For the compound `CCC1=C(C)c2cc3[nH]c(cc4nc(cc5[nH]c(cc1n2)c(C)c5CC)C(C)=C4CCCC(=O)OC)c(CCCC(=O)OC)c3C` [metal-free analog of compound 26, 8,13-diethyl-3,7,12,17-tetramethylporphyrin-2,18-di(butanoic acid methyl ester)], the “efficacy of free base porphyrins in the arterial rat model” value in data set [2] is “poor efficacy”.
On the same count and under the same terms, as for `CCOC(=O)CCCCC1=C(C)c2cc3[nH]c(cc4nc(cc5[nH]c(cc1n2)c(CCCCC(=O)OCC)c5C)C(CC)=C4C)c(CC)c3C` [metal-free analog of compound 28, 8,13-diethyl-3,7,12,17-tetramethylporphyrin-2,18-di(pentanoic acid ethyl ester)], the entry is “poor efficacy”.
For “Aluminum Chloride 8,13-diethyl-3,7,12,17-tetramethylporphyrin-2,18-di(butanoic acid methyl ester) [Example 48]”, the EC50 in data set [1] (setting [4]) is 4000 nM. The “Max % rat Artery Accelularity” value in data set [2] (drug dose 1 μMol) was 0%.
Regarding “Gallium Chloride 3,7,14,17-tetramethyl-5,10-diazaporphyrin-2,8,12,18-tetra (3′-hydroxypropyl) [Example 118]”, the EC50 in data set [1] (setting [5]) worked out at 300 nM.
For “Gallium Chloride 3,7,14,17-tetramethyl-5,10-diazaporphyrin-2,8,12,18-tetra propionic acid [Example 117]”, in data set [1] (setting [5]), the EC50 came to 600 nM.
For “Gallium Chloride 7,8,12,13-tetraethyl-12,17-dimethyl-10-azaporphyrin-2,18-di(3′-hydroxypropyl) [Example 23]”, in data set [1] (setting [6]), the EC50 came to 50 nM. Also, the “Max % Rat Artery Accelularity” value in data set [2] (Table 4, drug dose 1 μMol, 575 nm (Pt 532 nm)) is recorded as 50%.
Consider “Gallium Chloride 7,8,12,13-tetraethyl-12,17-dimethyl-10-azaporphyrin-2,18-di(propionic acid-2′-N,N-dimethylaminoethyl amide) [Example 102]”, for which the EC50 in data set [1] (setting [6]) came out at 1200 nM.
Same read-out and setting: under “Gallium Chloride 7,8,12,13-tetraethyl-12,17-dimethyl-10-azaporphyrin-2,18-di(propionic acid-3′-hydroxypropyl amide) [Example 97]” stands 1700 nM.
“Gallium Chloride 8,13-diethyl-3,7,12,17-tetramethylporphyrin-2,18-di(butanoic acid methyl ester) [Example 26]”: in data set [1] (setting [4]), the EC50 came out at 370 nM. For the same compound, the “Max % rat Artery Accelularity” value in data set [2] (drug dose 1 μMol) came to 75%.
Regarding “Platinum 3,7,14,17-tetramethyl-5,10-diazaporphyrin-2,8,12,18-tetra(3′-hydroxypropyl) [Example 120]”, the EC50 in data set [1] (setting [5]) was found to be 60 nM.
“Platinum 3,7,14,17-tetramethyl-5,10-diazaporphyrin-2,8,12,18-tetra(propionic acid methyl ester [Example 119]”: the EC50 in data set [1] (setting [5]) came out at 350 nM.
For the compound “Zinc 8,13-diethyl-3,7,12,17-tetramethylporphyrin-2,18-di(butanoic acid methyl ester) [Example 49]”, the EC50 in data set [1] (setting [4]) stood at 4000 nM. For the same compound, the “Max % rat Artery Accelularity” value in data set [2] (drug dose 1 μMol) stood at 0%.
